Literature values as cited in patent publication US20160175250A1, “Method for Making Liposomes Containing an Active Pharmaceutical Ingredient” (Tolmar Inc., priority 2014, published 2016).

Conditions: patients receiving doses greater than 550 mg per square meter of body area

SMILES: COc1cccc2c1C(=O)c1c(O)c3c(c(O)c1C2=O)C[C@@](O)(C(=O)CO)C[C@@H]3O[C@H]1C[C@H](N)[C@H](O)[C@H](C)O1 [doxorubicin, Doxorubicin]
- congestive heart failure from cumulative dose dependent irreversible cardiomyopathy, share of patients: 1-10%
